The values below come from patent US12497396B2, “Nitrogen-containing heterocyclic derivatives, method therefor and application therefor as inhibitors of KRAS G12C for the treatment of cancers” (SHANGHAI HANSOH BIOMEDICAL CO., LTD., priority 2019, dated 2025).

SMILES strings stand for the structures. Some results are limits rather than exact numbers.

The target in data set [1] is T1, hERG potassium channel (Homo sapiens, UniProt Q12809).
T1 construct: expressed in transfected cells; host or cells: CHO-hERG cells
T1 sequence (Q12809 whole entry): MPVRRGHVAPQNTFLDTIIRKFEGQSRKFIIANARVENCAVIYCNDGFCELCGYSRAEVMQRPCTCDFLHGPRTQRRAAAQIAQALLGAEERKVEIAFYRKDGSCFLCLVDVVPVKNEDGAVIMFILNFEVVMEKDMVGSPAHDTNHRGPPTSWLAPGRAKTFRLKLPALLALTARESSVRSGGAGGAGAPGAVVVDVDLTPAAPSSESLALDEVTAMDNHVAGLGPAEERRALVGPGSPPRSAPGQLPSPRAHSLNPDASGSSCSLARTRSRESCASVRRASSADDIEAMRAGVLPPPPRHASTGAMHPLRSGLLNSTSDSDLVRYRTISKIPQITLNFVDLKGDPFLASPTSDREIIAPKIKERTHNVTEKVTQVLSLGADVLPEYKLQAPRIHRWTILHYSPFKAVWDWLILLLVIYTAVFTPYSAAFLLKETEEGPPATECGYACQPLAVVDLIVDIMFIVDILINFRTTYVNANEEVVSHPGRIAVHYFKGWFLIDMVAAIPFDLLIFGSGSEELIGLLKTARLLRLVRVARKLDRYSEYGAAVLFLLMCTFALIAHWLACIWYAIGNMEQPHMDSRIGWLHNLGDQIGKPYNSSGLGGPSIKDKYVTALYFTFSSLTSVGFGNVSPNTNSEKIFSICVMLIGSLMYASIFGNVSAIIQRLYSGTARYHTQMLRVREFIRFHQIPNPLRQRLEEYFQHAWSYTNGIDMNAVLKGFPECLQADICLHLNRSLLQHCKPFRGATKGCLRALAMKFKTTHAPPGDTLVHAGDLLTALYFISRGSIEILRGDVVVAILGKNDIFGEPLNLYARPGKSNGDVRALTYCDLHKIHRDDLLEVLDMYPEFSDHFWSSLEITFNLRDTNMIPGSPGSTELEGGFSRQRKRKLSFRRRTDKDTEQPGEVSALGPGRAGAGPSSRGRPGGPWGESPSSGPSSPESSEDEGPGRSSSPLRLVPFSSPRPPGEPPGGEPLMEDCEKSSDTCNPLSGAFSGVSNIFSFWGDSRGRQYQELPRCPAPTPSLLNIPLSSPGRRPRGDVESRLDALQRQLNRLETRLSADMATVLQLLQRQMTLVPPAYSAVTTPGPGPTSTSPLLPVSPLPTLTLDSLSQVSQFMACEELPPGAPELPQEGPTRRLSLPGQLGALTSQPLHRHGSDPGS
Description: hERG potassium channel inhibitory activity (Qpatch, CHO-hERG cells). The class given is cell-based. The following applies: inhibition of hERG current, multiple concentrations. Here is the method: 7.1.1 CHO-hERG cells were cultured in a 175 cm^2 flask, when the cell density reached 60-80%, the culture medium was removed, the cells were washed with 7 mL PBS, and then digested with 3 mL Detachin.
7.1.2 After complete digestion, 7 mL culture medium was added to neutralize, then the mixture was centrifuged, the supernatant was aspirated, and then 5 mL culture medium was added to re-suspend, ensuring 2-5×10^6/mL of cell density.
The process of single cell high impedance sealing and whole cell mode formation were all automatically completed by Qpatch instrument, after obtaining the whole cell recording mode, the cells were clamped at −80 mV, before giving a 5-second +40 mV depolarization stimulus, a 50 millisecond −50 mV prevoltage was given first, and then repolarized to −50 mV for 5 seconds, then returned to −80 mV. This voltage stimulation was applied every 15 seconds and recorded for 2 minutes before giving extracellular fluid recordings for 5 minutes, and then the administration process was started, the compound concentration was given from the lowest test concentration, each test concentration was given for 2.5 minutes, and the positive control compound 0.1 μM of Cisapride was given after all concentrations were continuously given. At least 3 cells (n≥3) were tested at each concentration.
7.4.1 20 mM of compound mother liquor was diluted with extracellular fluid, 5 μL of 20 mM compound mother liquor was added into 2495 μL of extracellular fluid and diluted 500-fold to 40 μM, and then the final concentration to be tested was obtained by sequential 3-fold serial dilutions in extracellular solution containing 0.2% DMSO.
7.4.2 The highest test concentration was 40 μM, in a total of 6 concentrations of 40, 13.33, 4.44, 1.48, 0.49 and 0.16 μM respectively.
7.4.3 The content of DMSO in the final test concentration was not more than 0.2%, and this concentration of DMSO had no effect on hERG potassium channel.
The experimental data were analyzed by XLFit software.

Data set [2] in a line: Plasma protein binding rate, dog plasma. The format is in vitro ADME. The following applies: 37° C. Here is the method: (§1) The embodiment compound was prepared into a 1 mM solution A with DMSO.
(§2) Solution A was added to the plasma solution and prepared into a 5 μM solution B.
(§3) • 1) 200 μL of solution B was added into the membrane. • 2) 350 μL of PBS was added to the outside of the membrane. • 3) Incubating in a 37° C. water bath for 6 hours. • 4) The samples were processed for dilution and detected by mass spectrometry.
(§4) • Instrument: Shimadzu LC-20 AD; • Chromatographic column: phenomenex Gemiu® C18 (50*4.6 mm, 5 μM particle size); • Mobile phase: A: Acetonitrile, B: 0.1% formic acid solution 0-0.5 min: 5% A→90% A, 2.0-2.1 min: 90% A→5% A; flow rate: 0.8 mL/min; running time: 5.0 min; injection volume: 5 μL.
(§5) • Instrument: API4000 Liquid Chromatography-Mass Spectrometry, AB, USA; • the ion source was electrospray ionization source (ESI); • the temperature of dry gas (N2) was 500° C.; • electrospray voltage was 5500V; • the detection method was positive ion detection; • the scanning mode was selective response monitoring (MRM); the scanning time was 0.1 s.

Data set [3] is described as follows: in vivo. The note with it: male, Balb/c, mouse, po, 10 mg/kg.
Description: 5 g of Hydroxyethyl cellulose (HEC, CMC-Na, viscosity: 800-1200 Cps) was weighed, dissolved in 1000 mL of purified water, and 10 g of Tween 80 was added. The mixture was mixed well to form a clear solution.
The embodiment compounds were weighed and added into 4-mL glass bottles, respectively, 2.4 mL of the solution was added, and ultrasound was performed for 10 minutes to obtain a colorless clear solution with a concentration of 1 mg/mL.
Balb/C mice, males; PO, after overnight fasting, respectively, at a dose of 10 mg/kg, administered in a volume of 10 mL/kg.
Blood samples were collected before administration and 0.083 h, 0.25 h, 0.5 h, 1 h, 2 h, 4 h, 6 h and 8 h after administration, the blood was placed in EDTA-2K tube, centrifuged at 4° C. 6000 rpm for 6 min to separate plasma, and stored at −80° C.; food was consumed 4 hours after drug administration.
The nature of data set [4]: Plasma protein binding rate, human plasma. The format is in vitro ADME. The note with it: 37° C. As to the method: as §1, §2, §3, §4, §5
A short description of data set [5]: Plasma stability, rat plasma. The format is in vitro ADME. The following applies: for Residual rate (%) 0 min / Residual rate (%) 15 min / Residual rate (%) 30 min / Residual rate (%) 60 min / Residual rate (%) 120 min: rat plasma, 37° C.; for half-life at 0.5 μM: rat, plasma. As to the method:
Animal or human whole blood was collected, then the blood was put into a test tube containing anticoagulant, centrifuged at 3500 rpm for 10 min, and the upper layer of pale yellow plasma was collected. • 2), 10 μM of tested compound (m/M/V=C)
The compound was weighed, the stock solution was prepared with DMSO and the working solution was prepared with 100 mM phosphate buffer. • 3), 10 μM of positive control (1) Propantheline (Propantheline Mr=449.4 Da)
• 1) 285 μL of plasma and 15 μL of 10 μM compound (tested compound) were added in turn in a 96-well plate, and incubated at 37° C. • 2) 40 μL was taken out at 0, 15, 30, 60, 90, 120 min, respectively, and 160 μL of acetonitrile termination solution containing internal standard was added. • 3) After centrifugation (3500 rpm, 10 min), 50 μL of supernatant was taken out, and then diluted with 50 μL DDH2O and injected to LC-MS/MS.
• Instrument: Shimadzu LC-20 AD • Chromatographic column: phenomenex Gemiu® C18 (50*4.6 mm, 5 μM particle size); • mobile phase: A: acetonitrile, B: 0.1% formic acid solution […], 2.0-2.1 min: 90% A→5% A; flow rate: 0.8 mL/min; running time: 5.0 min; injection volume: 5 μL.
• Instrument: API4000 Liquid Chromatography-Mass Spectrometry, AB, USA; • the ion source was electrospray ionization source (ESI); • the temperature of dry gas (N2) was 500° C.; • electrospray voltage was 5500V; • the detection method was positive ion detection; • the scanning mode was selective response monitoring (MRM). • the scanning time was 0.1 s.

In data set [1], `C=CC(=O)N1C[C@H](C)N(c2nc(=O)n(-c3c(SC)ccnc3C(C)C)c3nc(-c4c(O)cccc4F)c(F)cc23)C[C@H]1C` (single isomer, unassigned) [Embodiment 114-1] registered an IC50 above 30 µM. This compound had a fraction unbound at 6 h, 5 μM in data set [2] of 0.174. In addition, in data set [3], the AUC(0-inf) worked out at 1370 ng·h/mL, the peak level (Cmax) was 1820 ng/mL, the MRT is 42 min and the Tmax worked out at 15 min. The compound also had a half-life in data set [3] of 36 min. In data set [4], this compound had a fraction unbound at 6 h, 5 μM of 0.02.

As to `C=CC(=O)N1C[C@H](C)N(c2nc(=O)n(-c3c(SC)ccnc3C(C)C)c3nc(-c4c(N)ccc(Cl)c4F)c(Cl)cc23)C[C@H]1C` (single isomer, unassigned) [Embodiment 165-1], the IC50 in data set [1] was above 30 µM. This compound gave a fraction unbound at 6 h, 5 μM in data set [2] of 0.013. Moreover, in data set [3], the AUC(0-inf) came out at 347 ng·h/mL, the peak level (Cmax) was 264 ng/mL, the mean residence time (MRT) was determined as 90 min and the Tmax came to 15 min. In addition, in data set [3], the half-life was 60 min. The compound also showed a fraction unbound at 6 h, 5 μM in data set [4] of 0.003. Further, in data set [5], the “Residual rate (%) 0 min” value was determined as 100.00%, the “Residual rate (%) 15 min” value turned out to be 95.57%, the “Residual rate (%) 30 min” value was found to be 96.73% and the “Residual rate (%) 60 min” value is 93.97%. In addition, in data set [5], the “Residual rate (%) 120 min” value is given as 91.93% and the half-life at 0.5 μM is 19.3 h.

`C=CC(=O)N1C[C@H](C)N(c2nc(=O)n(-c3c(SC)ccnc3C(C)C)c3nc(-c4c(O)cccc4F)c(Cl)cc23)C[C@H]1C` (single isomer, unassigned) [Embodiment 166-1] yielded an IC50 in data set [1] above 30 µM. In data set [2], the fraction unbound at 6 h, 5 μM is 0.075. This compound also gave a fraction unbound at 6 h, 5 μM in data set [4] of 0.032. In data set [5], the “Residual rate (%) 0 min” value was determined as 100.00%, the “Residual rate (%) 15 min” value was determined as 93.20%, the “Residual rate (%) 30 min” value is on record as 98.32% and the “Residual rate (%) 60 min” value is recorded as 99.08%. Moreover, in data set [5], the “Residual rate (%) 120 min” value was 96.46% and the half-life at 0.5 μM came to 108 h.

A word on the IC50: it is the concentration at which inhibition is half-maximal. Read a high IC50 as lower potency. The fraction unbound is the share of the substance not bound to proteins or other matrix. A higher fraction unbound goes with much free substance. Broadly, the AUC(0-inf) is the area under the concentration-time curve extrapolated to infinity. High values mean more exposure, low ones less exposure. A word on the Cmax: it is the highest concentration seen after dosing. Usually MRT stands for the average time that molecules of a dose stay in the body. The Tmax is the time from dosing to the highest level. As a reminder, the half-life is how long it takes for the measured level to halve. Low readings indicate rapid decline, high ones slow decline.
